Data on five molecules can be found in article PMC4246079, “Structure and Mechanism of the Bifunctional CinA Enzyme from Thermus thermophilus” (The Journal of Biological Chemistry, 2014).

Structures are written as SMILES.

The target in experiment [1] is T1, TtCinA (Thermus thermophilus, UniProt Q5SHB0).
T1 construct: gene TTHA1820; full-length, N-terminal His6 tag with thrombin site (pET28a, thrombin-treated), expressed in E. coli T7 Express; asymmetric homodimer (~72 kDa by SEC, 86 kDa predicted dimer)
T1 sequence (Q5SHB0 entry or part of it): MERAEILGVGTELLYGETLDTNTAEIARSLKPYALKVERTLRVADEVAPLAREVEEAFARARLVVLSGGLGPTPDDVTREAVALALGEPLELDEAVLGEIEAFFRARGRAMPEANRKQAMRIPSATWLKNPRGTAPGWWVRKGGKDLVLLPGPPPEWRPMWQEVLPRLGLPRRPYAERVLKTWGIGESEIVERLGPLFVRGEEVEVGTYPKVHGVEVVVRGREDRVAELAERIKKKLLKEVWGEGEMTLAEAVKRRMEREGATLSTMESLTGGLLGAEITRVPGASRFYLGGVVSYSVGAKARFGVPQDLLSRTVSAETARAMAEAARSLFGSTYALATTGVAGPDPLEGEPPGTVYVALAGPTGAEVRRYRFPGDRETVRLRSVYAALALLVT
Description: X-ray crystal structure ([…] Å; crystal soak); turnover to AMP also seen by HPLC. To be noted: ADPR site of COG1058 domain, both open and closed sites; 5 mM MgCl2, 25 mM ligand, Mg2+ bound; HPLC assay with 1 mM ADP-ribose, 4 mM CoCl2, 100 mM KCl, pH 8.0, 50 °C. Type of experiment: binding.

Experiment [2] deals with T1, TtCinA. Kind of experiment: X-ray crystal structure ([…] Å; crystal soak). To be noted: ADPR site of COG1058 domain, open site only, weaker density; 5 mM MgCl2, 25 mM ligand (AMP/ribose 5-phosphate), Mg2+ bound. Type of experiment: binding.
Experiment [3] concerns the target T1, TtCinA. Description: X-ray crystal structure ([…] Å; crystal soak). To be noted: ADPR site of COG1058 domain, both sites; 5 mM MgCl2, 25 mM ligand, Mg2+ bound; no hydrolysis seen. It is filed as binding.
The target of experiment [4] is T1, TtCinA. Kind of experiment: X-ray crystal structure ([…] Å; crystal soaked with NMN). The note with it: NMN deamidase site; built as product NCN by presumption, density could not distinguish NMN from NCN; 5 mM MgCl2, 25 mM NMN soak. It is filed as binding.
The target in experiment [5] is T1, TtCinA. Kind of experiment: reverse-phase HPLC of conversion to NCN. Type of experiment: biochemical. To be noted: NMN deamidase; 1 mM NMN, 100 μg enzyme per ml, 25 mM Tris-HCl pH 8.0, 100 mM NaCl, 37 °C, 15 min.

For `Nc1ncnc2c1ncn2[C@@H]1O[C@H](COP(=O)(O)OP(=O)(O)OC[C@H]2OC(O)[C@H](O)[C@@H]2O)[C@@H](O)[C@H]1O` (some centres unmarked) [ADP-ribose], in experiment [1], the “X-ray crystal structure (1.99 Å; crystal soak); turnover to AMP also seen by HPL” value is “ADP-ribose and ATP data sets produced clear difference density in both catalytic sites”.
As to `Nc1ncnc2c1ncn2[C@@H]1O[C@H](COP(=O)(O)O)[C@@H](O)[C@H]1O` [AMP], the “X-ray crystal structure (1.98 Å; crystal soak)” value in experiment [2] is listed as “it was possible to model in an AMP molecule in one of the two active sites”.
On to `Nc1ncnc2c1ncn2[C@@H]1O[C@H](COP(=O)(O)OP(=O)(O)OP(=O)(O)O)[C@@H](O)[C@H]1O` [ATP], for which, in experiment [3], the “X-ray crystal structure (2.21 Å; crystal soak)” value is “ATP binds in a very similar conformation to ADP-ribose”.
On to `O=C([O-])c1ccc[n+]([C@@H]2O[C@H](COP(=O)(O)O)[C@@H](O)[C@H]2O)c1` [NCN, nicotinate mononucleotide], for which the “X-ray crystal structure (2.46 Å; crystal soaked with NMN)” value in experiment [4] was “it was not possible to distinguish NMN from the product, NCN”.
For the molecule `NC(=O)c1ccc[n+]([C@@H]2O[C@H](COP(=O)([O-])O)[C@@H](O)[C@H]2O)c1` [NMN, nicotinamide mononucleotide], the “reverse-phase HPLC of conversion to NCN” value in experiment [5] was “NMN showed rapid conversion to NCN product in the presence of TtCinA”.
